From patent US6978724B2, “Copper complexes and their use as wood preservatives” (E.I. Du Pont de Nemours and Company, priority 2002, dated 2005)

Legend:
white, hairy fungus = assay: Soil burial of pressure-imbibed SYP wooden stakes in flower pots, visual examination; settings: SYP stakes imbibed at 5000 ppm copper, 155 psi; about 3/4 buried in moist non-sterile soil, greenhouse at 78° C, after 5 months
Method: Two pre-weighed SYP wooden stakes (¾″×¾″×12″ or ¾″×1½″×12″) were loaded into a hastaloy pressure vessel and covered with imbibement solution at room temperature. The imbibement solution was prepared by diluting the preparations given in Example 1 with water to a copper concentration of 5000 ppm. The vessel was evacuated for 5 min and then pressured with nitrogen for 1 h at 155 psi at which time the pressure was removed. The stakes were then removed from the vessel and allowed to drip dry. Weights were then recorded to insure that the wood was penetrated with the imbibement solution. The stakes were then dried overnight in a convection oven at 55° C. Weights of the dried stakes were then recorded.
These treated stakes along with control (untreated) stakes were labeled and buried in a flower pot with about ¾ of the wood below the surface of non-sterile soil. The flower pots were kept moist in a greenhouse at […]. After 5 months, the stakes were visually examined.

non-sterile soil = assay: Ground burial exposure of treated newsprint and cardboard; settings: newsprint soaked 5 min in 5000 ppm copper solution; buried in moist non-sterile garden soil 90 days, 18 to 24° C
Description: Cellulosic materials, including newsprint and cardboard samples, treated with copper amidoxime or hydroxamic acid complexes are preserved after being buried in non-sterile soil for 90 days. (Procedure adapted from: Hussey, S. W., More Brownie Girl Scout Try-Its, Girl Scouts of the U.S.A., 81 (1989).) In the same soil, untreated newsprint and cardboard samples were consumed microbially resulting in disintegration of the materials. Given that the composition of mechanically pulped newsprint closely resembles that of coniferous trees (Table 1, U.S. Pat. No. 5,582,682), this method serves as a rapid test for screening for preservatives of wood.
The imbibement solution was prepared by diluting the preparations given in Example 1 with water to a copper concentration of 5000 ppm. Samples of newsprint were soaked in solutions of the copper complexes for 5 min. The paper was removed from the imbibing solution, blotted nearly dry, air-dried overnight, and then placed in sacks made from nylon stockings. The sacks were labeled and closed with nylon twist-ties. Control samples of untreated newsprint were placed in similar nylon sacks. The sacks of treated and untreated newsprint were buried in clay pots containing moist, non-sterile garden soil for 90 days and maintained at approximately 18 to 24° C. After 90 days the sacks were unburied, opened, and the contents examined for decomposition. […]

Copper Complex of the Amidoxime of Sorbitol [Example 1]
visual examination of stakes for covering of white, hairy fungus below the soil surface (white, hairy fungus): showed no such covering | decomposition of treated newsprint (non-sterile soil): still intact and the printing was still legible
